Patent US20250161391A1, “UROLITHIN COMBINATION” (Amazentis SA, priority 2023, published 2025)
“Also recorded” adds a separate entry of the source.

System: mouse IL-6
Test: IL-6 ELISA on culture medium of differentiated C2C12 cells exposed to a cytokine mixture (cytomix, CTX)
Format: cell-based
Details: for % reduction IL-6: C2C12, 24 h pre-treatment, then 24 h with cytomix; for IL-6 / anti-inflammatory effect (FIG. 1): pre-treatment for 24 hours at 3.125 μM alone
Protocol: C2C12 Myoblasts purchased from ATCC (ref. CRL-1772) were seeded at 8000 cells per well in a 96 well plate (Greiner) using a DMEM Glutamax 4.5g D-glucose (Gibco, ref 31966021) supplemented with FIBS 10% (PanBiotech, ref P190902), 1% PenStrep (Biowest) and 1% Hepes (Biowest). Cells were then differentiated for 6 days using a differentiation medium (DMEM Glutamax 4.5g D-glucose (Gibco, ref 31966021), 2% Horse serum (Thermofisher, ref 160501229) 1% PenStrep and 1% Hepes). All media were sterilized with a 0.45 um filter unit (VWR). After 4 days of the differentiation cells were treated for 24 h with 1) Urolithin A (UA) resuspended in DMSO, 2) ginsenoside […]-3832) or 3) a combination of the two at the indicated doses. A cytokine mixture (“cytomix”) was added at day 5 in addition of the previous treatment for another 24 h, cytokines were respectively used at 5ng (mIFN-γ (Roche ref. 11276905001), TNF-α (Peprotech ref. 300-01A) and IL-1β (Proteintech ref. 200-01B)). The medium was collected and an ELISA for Interleukin-6 were performed following the instruction provided by the supplier (Proteintech ref. KE10007). In particular, the IL-6 ELISA kit is to be used to detect and quantify protein levels of endogenous mouse IL-6. The assay recognizes mouse IL-6. An antibody specific for mouse IL-6 has been pre-coated onto the microwells. The IL-6 protein in samples is captured by the coated antibody after incubation. Following extensive washing, another antibody of biotinylated specific for mouse IL-6 is added to detect the captured mouse IL-6 protein. For signal development, Streptavidin-HRP is added, followed by Tetramethyl-benzidine (TMB) reagent. Solution containing sulfuric acid is used to stop colour development and the colour intensity which is proportional to the quantity of bound protein is measurable at 450 nm with the correction wavelength set at 630 nm, using a microplate plate reader (Fluostar Optima, BMG Labtech). We exposed of C2C12 to a mix of pro-inflammatory cytokines (cytomix, CTX) to induce inflammation signals. Interleukin-6 (IL-6), a multifunctional cytokine produced in cells and induced by a variety of stimulating signals. IL-6 production and release in the media is a proxy of the inflammation induced by treatment with the cytokines part of the cytomix (Tosato & Jones (1990) Blood 75(6), 1305-10). With cytomix treatment, we observed a significant increase in Interleukin 6 (IL-6) secretion, measured as the concentration of IL-6 in the cell culture media.

| Structure (SMILES) | % reduction IL-6 (CTX 5 ng vs. Rg1 3.125 μM + CTX) | IL-6 / anti-inflammatory effect (FIG. 1) (cytomix-treated C2C12) | IL-6 / anti-inflammatory effect (FIG. 1) (cytomix-treated C2C12, listed as Rg1) | IL-6 (FIG. 1) (pre-treatment for 24 hours at 12.5 μM, cytomix-treated C2C12) | IL-6 (FIG. 1) (pre-treatment for 24 hours at 100 μM, cytomix-treated C2C12) | IL-6, dose dependence (FIG. 1) (pre-treatment for 24 hours, 3.125 to 100 μM, cytomix-treated C2C12) | % reduction IL-6 (CTX 5 ng vs. UA 6.25 μM + CTX) | IL-6 secretion (FIG. 1) (pre-treatment for 24 hours at 6.25 μM, cytomix-treated C2C12) |
| --- | --- | --- | --- | --- | --- | --- | --- | --- |
| CC(C)=CCC[C@](C)(O[C@@H]1O[C@H](CO)[C@@H](O)[C@H](O)[C@H]1O)[C@H]1CC[C@]2(C)[C@@H]1[C@H](O)C[C@@H]1[C@@]3(C)CC[C@H](O)C(C)(C)[C@@H]3[C@@H](O[C@@H]3O[C@H](CO)[C@@H](O)[C@H](O)[C@H]3O)C[C@]12C [Ginsenoside Rg1, ginsenoside Rg1] | +9.8% | no effects | did not show any anti-inflammatory effect alone; also recorded: no effects | non-significant trend in reduction | significant decrease | dose dependent decrease in IL-6 |  |  |
| O=c1oc2cc(O)ccc2c2ccc(O)cc12 [Urolithin A] |  |  |  |  |  |  | −16% | significantly decreased IL-6 secretion |
